Tests used:
[1] = target: T1, Bone morphogenetic protein 1 (Homo sapiens, UniProt P13497); experiment: Inhibition of C-terminal FLAG-6x-His epitope tagged and N-terminal human RAGE signal sequence tagged human BMP1 (23 to 721 amino acids) expressed in CHO-E1 cells pre-incubated for 10 mins before promyostatin peptide substrate addition and measured after 60 mins using 0.5 nM BMP1 by FRET based assay; assay type: cell-based
T1 sequence (P13497 whole entry): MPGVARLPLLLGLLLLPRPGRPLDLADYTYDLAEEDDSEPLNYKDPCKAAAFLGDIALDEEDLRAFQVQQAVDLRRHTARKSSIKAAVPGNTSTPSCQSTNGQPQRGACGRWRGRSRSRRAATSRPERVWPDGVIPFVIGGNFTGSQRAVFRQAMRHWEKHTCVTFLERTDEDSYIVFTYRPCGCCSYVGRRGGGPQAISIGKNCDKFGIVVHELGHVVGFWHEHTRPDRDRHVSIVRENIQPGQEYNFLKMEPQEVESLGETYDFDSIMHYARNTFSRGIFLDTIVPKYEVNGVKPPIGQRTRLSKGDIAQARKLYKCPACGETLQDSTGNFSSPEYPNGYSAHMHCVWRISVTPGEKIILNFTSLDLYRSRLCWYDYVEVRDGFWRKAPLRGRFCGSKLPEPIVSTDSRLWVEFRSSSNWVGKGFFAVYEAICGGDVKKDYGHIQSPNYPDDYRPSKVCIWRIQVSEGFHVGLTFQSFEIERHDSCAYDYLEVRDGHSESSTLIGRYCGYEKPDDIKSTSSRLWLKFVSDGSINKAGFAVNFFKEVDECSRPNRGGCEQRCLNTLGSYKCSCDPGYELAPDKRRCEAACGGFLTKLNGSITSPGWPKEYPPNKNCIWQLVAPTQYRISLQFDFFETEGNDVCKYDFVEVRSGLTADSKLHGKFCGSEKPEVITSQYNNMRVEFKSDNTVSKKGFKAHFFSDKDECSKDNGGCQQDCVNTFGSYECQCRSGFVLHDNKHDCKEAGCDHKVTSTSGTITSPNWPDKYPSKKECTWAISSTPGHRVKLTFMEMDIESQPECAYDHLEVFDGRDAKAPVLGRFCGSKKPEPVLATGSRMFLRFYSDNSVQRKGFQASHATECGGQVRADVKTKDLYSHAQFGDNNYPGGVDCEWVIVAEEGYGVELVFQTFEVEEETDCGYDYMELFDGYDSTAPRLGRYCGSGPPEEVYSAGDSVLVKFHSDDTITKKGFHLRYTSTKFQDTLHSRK

[2] = target: T1, Bone morphogenetic protein 1; experiment: Inhibition of C-terminal FLAG-6x-His epitope tagged and N-terminal human RAGE signal sequence tagged human BMP1 (23 to 721 amino acids) expressed in CHO-E1 cells pre-incubated for 10 mins before promyostatin peptide substrate addition and measured after 30 mins using 50 nM BMP1 by FRET based assay; assay type: cell-based
Tolloid-like protein 1 = Tolloid-like protein 1 (Homo sapiens, UniProt O43897, I156V/N221S/V284A); experiment: Inhibition of recombinant human TLL1 I156V/N221S/V284A mutant expressed in CHOE1A cells pre-incubated for 10 mins before promyostatin peptide substrate addition and measured after 60 mins by FRET based assay; assay type: cell-based
Tolloid-like protein 2 = target: T2, Tolloid-like protein 2 (Homo sapiens, UniProt Q9Y6L7); experiment: Inhibition of C-terminal Avi-6x-His epitope tagged and N-terminal human RAGE signal sequence tagged recombinant human TLL2 (26 to 1015 amino acids) expressed in CHOE1A cells incubated for 60 mins with promyostatin peptide substrate by FRET based assay; assay type: cell-based
T2 sequence (Q9Y6L7 whole entry): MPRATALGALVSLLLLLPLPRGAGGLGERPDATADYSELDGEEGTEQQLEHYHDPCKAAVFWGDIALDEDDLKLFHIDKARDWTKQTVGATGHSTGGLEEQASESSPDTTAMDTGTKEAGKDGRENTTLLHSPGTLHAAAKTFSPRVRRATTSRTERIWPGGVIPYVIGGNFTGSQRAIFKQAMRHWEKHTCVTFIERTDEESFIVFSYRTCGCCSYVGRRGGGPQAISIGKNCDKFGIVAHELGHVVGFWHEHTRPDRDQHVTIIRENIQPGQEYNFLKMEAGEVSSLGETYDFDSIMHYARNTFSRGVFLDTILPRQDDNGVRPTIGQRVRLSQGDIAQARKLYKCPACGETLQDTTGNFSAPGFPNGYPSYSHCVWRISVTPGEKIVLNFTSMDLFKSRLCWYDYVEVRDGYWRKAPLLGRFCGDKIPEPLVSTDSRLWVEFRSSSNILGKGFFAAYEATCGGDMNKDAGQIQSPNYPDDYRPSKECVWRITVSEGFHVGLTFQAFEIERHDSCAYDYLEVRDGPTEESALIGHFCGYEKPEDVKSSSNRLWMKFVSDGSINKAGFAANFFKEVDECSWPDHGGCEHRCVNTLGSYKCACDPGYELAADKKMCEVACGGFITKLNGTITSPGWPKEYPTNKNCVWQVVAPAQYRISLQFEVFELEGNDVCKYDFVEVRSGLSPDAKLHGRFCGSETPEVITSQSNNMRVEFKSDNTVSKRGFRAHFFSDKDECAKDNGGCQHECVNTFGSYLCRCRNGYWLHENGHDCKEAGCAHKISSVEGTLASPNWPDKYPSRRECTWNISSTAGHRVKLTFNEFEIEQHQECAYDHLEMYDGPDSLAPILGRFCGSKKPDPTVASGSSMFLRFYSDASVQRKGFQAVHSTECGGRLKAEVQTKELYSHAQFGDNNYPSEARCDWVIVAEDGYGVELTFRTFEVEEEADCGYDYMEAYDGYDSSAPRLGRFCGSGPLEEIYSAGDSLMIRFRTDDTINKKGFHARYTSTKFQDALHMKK

[3] = Reduction in PICP levels in human cardiac fibroblasts incubated for 24 to 48 hrs by ELISA; assay type: functional
Method in brief: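 Human cardiac fibroblasts (passage 6 or below) were seeded at 10,000 to 15,000 cells per well in 96-well plates. The next day they were treated in ficoll crowding EMEM with 100 μM ascorbic acid and under 0.3% DMSO, for 24 to 48 hr at 37° C. Procollagen I C-terminal propeptide in the medium was measured with a Quidel ELISA. IC50 came from fitting levels relative to untreated controls to a log(inhibitor)-response equation in GraphPad Prism.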

Sequence of Tolloid-like protein 1 (O43897 148-1013 I156V/N221S/V284A limits assumed): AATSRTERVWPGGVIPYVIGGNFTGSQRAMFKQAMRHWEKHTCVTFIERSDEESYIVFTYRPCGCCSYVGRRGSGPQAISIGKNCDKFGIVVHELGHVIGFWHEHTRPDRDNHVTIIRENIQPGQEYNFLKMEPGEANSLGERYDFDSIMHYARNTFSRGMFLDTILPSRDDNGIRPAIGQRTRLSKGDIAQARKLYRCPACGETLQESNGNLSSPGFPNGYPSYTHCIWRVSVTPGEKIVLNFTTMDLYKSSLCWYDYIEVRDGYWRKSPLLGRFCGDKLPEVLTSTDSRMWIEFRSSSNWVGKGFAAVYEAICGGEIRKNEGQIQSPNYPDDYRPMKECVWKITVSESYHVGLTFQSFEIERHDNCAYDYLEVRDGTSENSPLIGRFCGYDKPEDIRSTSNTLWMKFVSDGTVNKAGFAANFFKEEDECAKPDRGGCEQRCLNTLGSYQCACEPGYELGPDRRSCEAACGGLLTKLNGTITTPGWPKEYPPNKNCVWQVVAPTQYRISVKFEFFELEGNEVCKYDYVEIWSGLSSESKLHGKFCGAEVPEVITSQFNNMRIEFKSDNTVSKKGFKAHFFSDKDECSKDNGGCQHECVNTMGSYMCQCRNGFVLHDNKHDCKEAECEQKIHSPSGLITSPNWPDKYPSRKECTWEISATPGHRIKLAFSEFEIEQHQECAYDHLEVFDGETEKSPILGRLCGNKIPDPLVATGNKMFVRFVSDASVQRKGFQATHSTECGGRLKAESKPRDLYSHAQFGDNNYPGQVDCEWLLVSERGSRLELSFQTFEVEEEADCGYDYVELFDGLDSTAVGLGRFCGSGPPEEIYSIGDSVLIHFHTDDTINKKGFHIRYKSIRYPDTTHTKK

SMILES | IC50 [1] [nM] | IC50 [2] [nM] | IC50 (Tolloid-like protein 1) [nM] | IC50 (Tolloid-like protein 2) [nM] | IC50 [3] [nM]
CCCCC[C@H](CN(O)C=O)C(=O)NCNC(=O)c1ccc(-c2cccc(OCC)c2)o1 | < 126 | < 200 | < 398 | < 794 | < 3980
CCCCC[C@@H](C(=O)NCNC(=O)C1CCC(c2cc(OCC)cc(P(=O)(O)O)c2)O1)[C@@H](CC)N(O)C=O (stereo not given in full) | < 126 | < 200 | < 398 | < 794 | < 3980
CCCCC[C@H](CN(O)C=O)C(=O)NCNC(=O)c1ccc(-c2cccc(C(=O)O)c2OC)o1 | < 126 | < 200 | < 398 | < 794 | < 3980
CCCCC[C@@H](C(=O)NCNC(=O)c1ccc(-c2ccc(C(C)(C)C(=O)O)cc2)o1)[C@@H](CC)N(O)C=O | < 126 | < 200 | < 398 | < 794 | < 3980
CCCCC[C@H](CN(O)C=O)C(=O)NCNC(=O)c1ccc(-c2cccc(S(N)(=O)=O)c2)o1 | < 126 | < 200 | < 398 | < 794 | < 3980
CCCCC[C@@H](C(=O)NCNC(=O)c1ccc(-c2cc(OCC(N)=O)cc(C(=O)O)c2)o1)[C@@H](CC)N(O)C=O | < 126 | < 200 | < 398 | < 794 | < 3980
CCCCC[C@H](CN(O)C=O)C(=O)NCNC(=O)c1ccc(-c2cccc(S(=O)(=O)NC)c2)o1 | < 126 | < 200 | < 398 | < 794 | < 3980
CCCCC[C@@H](C(=O)NCNC(=O)c1ccc(-c2ccc(C(=O)NCP(=O)(O)O)cc2)o1)[C@@H](CC)N(O)C=O | < 126 | < 200 | < 398 | < 794 | < 3980
CCCCC[C@H](CN(O)C=O)C(=O)NCNC(=O)c1ccc(-c2cccc(S(=O)(=O)NC(=O)CC)c2)o1 | < 126 | < 200 | < 398 | < 794 | < 3980
CCCCC[C@H](CN(O)C=O)C(=O)NCNC(=O)c1ccc(-c2cccc(OC(F)(F)F)c2)o1 | < 126 | < 200 | < 398 | < 794 | < 3980
CCCCC[C@@H](C(=O)NCNC(=O)c1ccc(-c2ccc(C(=O)N(CC(=O)O)CC(=O)O)cc2)o1)[C@@H](CC)N(O)C=O | < 126 | < 200 | < 398 | < 794 | < 3980
CCCCC[C@H](CN(O)C=O)C(=O)NCNC(=O)c1ccc(-c2cc(OC)cc(OC)c2)o1 | < 126 | < 200 | < 398 | < 794 | < 3980
CCCCC[C@@H](C(=O)NCNC(=O)c1ccc(-c2cc(OCC(=O)O)cc(C(=O)N[C@@H](CC(=O)O)C(=O)O)c2)o1)[C@@H](CC)N(O)C=O | < 126 | < 200 | < 398 | < 794 | < 3980
CCCCC[C@H](CN(O)C=O)C(=O)NCNC(=O)c1ccc(-c2cccc(N(C)C)c2)o1 | < 126 | < 200 | < 398 | < 794 | < 3980
CCCCC[C@@H](C(=O)NCNC(=O)c1ccc(-c2ccc(C(=O)NCP(=O)(O)O)c(O)c2)o1)[C@@H](CC)N(O)C=O | < 126 | < 200 | < 398 | < 794 | < 3980
CCCCC[C@H](CN(O)C=O)C(=O)NCNC(=O)c1ccc(-c2cccc(OC(F)F)c2)o1 | < 126 | < 200 | < 398 | < 794 | < 3980
CCCCC[C@H](CN(O)C=O)C(=O)NCNC(=O)c1ccc(-c2ccc(F)c(C(=O)OC)c2)o1 | < 126 | < 200 | < 398 | < 794 | < 3980
CCCCC[C@@H](C(=O)NCNC(=O)c1ccc(-c2ccc(C(=O)O)c(OCC)c2)o1)[C@@H](CC)N(O)C=O | < 126 | < 200 | < 398 | < 794 | < 3980
CCCCC[C@@H](C(=O)NCNC(=O)c1ccc(-c2cc(OCC(=O)O)cc(P(=O)(O)O)c2)o1)[C@@H](CC)N(O)C=O | < 126 | < 200 | < 398 | < 794 | < 3980
CCCCC[C@H](CN(O)C=O)C(=O)NCNC(=O)c1ccc(-c2ccc(F)c(C(=O)O)c2F)o1 | < 126 | < 200 | < 398 | < 794 | < 3980
CCCCC[C@@H](C(=O)NCNC(=O)c1ccc(-c2ccc(CC(=O)O)c(OCC)c2)o1)[C@@H](CC)N(O)C=O | < 126 | < 200 | < 398 | < 794 | < 3980
CCCCC[C@@H](C(=O)NCNC(=O)c1ccc(-c2ccc(C(=O)O)c(CC(=O)O)c2)o1)[C@@H](CC)N(O)C=O | < 126 | < 200 | < 398 | < 794 | < 3980
CCCCC[C@H](CN(O)C=O)C(=O)NCNC(=O)c1ccc(-c2cccc(SC)c2)o1 | < 126 | < 200 | < 398 | < 794 | < 3980
CCCCC[C@H](CN(O)C=O)C(=O)NCNC(=O)c1ccc(-c2cccc(OCC(F)(F)F)c2)o1 | < 126 | < 200 | < 398 | < 794 | < 3980
CCCCC[C@H](CN(O)C=O)C(=O)NCNC(=O)c1ccc(-c2cccc(P(=O)(O)OC)c2)o1 | < 126 | < 200 | < 398 | < 794 | < 3980
CCCCC[C@@H](C(=O)NCNC(=O)c1ccc(-c2cccc(C(C)(C)C(=O)O)c2)o1)[C@@H](CC)N(O)C=O | < 126 | < 200 | < 398 | < 794 | < 3980
CCCCC[C@H](CN(O)C=O)C(=O)NCNC(=O)c1ccc(-c2cccc([N+](=O)[O-])c2)o1 | < 126 | < 200 | < 398 | < 794 | < 3980
